Laboratory results as given in ChEMBL document CHEMBL5523719, “Structure-activity relationship study of new carbazole sulfonamide derivatives as anticancer agents with dual-target mechanism” (Eur J Med Chem, 2024).
Calls of active or inactive are those of the source. No cut-off for these calls is given here.

What was measured:
[1] = molecular target: Tubulin beta (Homo sapiens) (UniProt P68371+Q9H4B7+Q13509+P04350+Q3ZCM7+P07437+Q13885+Q9BVA1+Q9BUF5+A6NNZ2); assay: Binding affinity to beta-tubulin colchicine binding site in human MCF7 cells assessed as inhibition of EBI-beta-tubulin adduct band formation preincubated for 2 hrs followed by EBI addition measured after 2 hrs by EBI competition based Western blotting analysis; format: cell-based; details: dose 12.5-100 nM
[2] = system: MCF7; assay: Induction of apoptosis in human MCF7 cells assessed as late apoptotic cells at 25 nM measured after 48 hrs by AnnexinV/PI double staining assays (reference value: 2.60%); format: functional
[3] = system: L02; assay: Antiproliferation activity against human L02 cells measured after 72 hrs incubation by MTT assay; format: functional, cell-based; details: L02, 72 h
[4] = system: MCF7; assay: Induction of apoptosis in human MCF7 cells assessed as early apoptotic cells at 6.25 nM measured after 48 hrs by AnnexinV/PI double staining assays (reference value: 5.32%); format: functional
[5] = system: MCF7; assay: Induction of apoptosis in human MCF7 cells assessed as viable cells at 50 nM measured after 48 hrs by AnnexinV/PI double staining assays (reference value: 91.20%); format: functional; details: read-out: Activity
[6] = system: MCF7; assay: Induction of cell cycle arrest in human MCF7 cells assessed as accumulation of cells at G2/M phase at 500 nM measured after 24 hrs by flow cytometry (reference value: 22.84%); format: functional
[7] = system: HMEC-1; assay: Anti-proliferative activity against human HMEC-1 cells measured after 48 hrs; format: functional, cell-based; details: HMEC-1, 48 h
[8] = system: MCF7; assay: Induction of apoptosis in human MCF7 cells assessed as multinuclear cells at 5 nM measured after 24 hrs by fluorescent microscopy; format: functional
[9] = system: MCF7; assay: Induction of apoptosis in human MCF7 cells assessed as necrotic cells at 12.5 nM measured after 48 hrs by AnnexinV/PI double staining assays (reference value: 0.89%); format: functional
[10] = system: MCF7; assay: Induction of apoptosis in human MCF7 cells assessed as viable cells at 12.5 nM measured after 48 hrs by AnnexinV/PI double staining assays (reference value: 91.20%); format: functional; details: read-out: Activity
[11] = system: MCF7; assay: Induction of cell cycle arrest in human MCF7 cells assessed as increase in phosphorylation of histone H3 at […] by Western blot analysis; format: functional, cell-based; details: dose lower 6.25 µM
[12] = system: MCF7; assay: Induction of apoptosis in human MCF7 cells assessed as viable cells at 25 nM measured after 48 hrs by AnnexinV/PI double staining assays (reference value: 91.20%); format: functional; details: read-out: Activity
[13] = system: MCF7; assay: Induction of apoptosis in human MCF7 cells assessed as late apoptotic cells at 12.5 nM measured after 48 hrs by AnnexinV/PI double staining assays (reference value: 2.60%); format: functional
[14] = system: KB; assay: Antiproliferation activity against human KB cells measured after 72 hrs incubation by MTT assay; format: functional, cell-based
[15] = system: MDA-MB-231; assay: Antiproliferation activity against human MDA-MB-231 cells measured after 72 hrs incubation by MTT assay; format: functional, cell-based; details: MDA-MB-231, 72 h
[16] = system: MCF7; assay: Induction of apoptosis in human MCF7 cells assessed as necrotic cells at 50 nM measured after 48 hrs by AnnexinV/PI double staining assays (reference value: 0.89%); format: functional
[17] = system: MCF7; assay: Induction of cell cycle arrest in human MCF7 cells assessed as accumulation of cells at G2/M phase at 100 nM measured after 24 hrs by flow cytometry (reference value: 22.84%); format: functional
[18] = system: HMEC-1; assay: Angiogenic activity against human HMEC-1 cells assessed as decrease in vascular area measured after 48 hrs by Endothelial tube formation assay; format: functional, cell-based; details: dose 1-100 nM
[19] = system: MCF7; assay: Antiproliferation activity against human MCF7 cells measured after 72 hrs incubation by MTT assay; format: functional, cell-based; details: MCF7, 72 h
[20] = molecular target: T1, Tubulin (Homo sapiens) (UniProt P68371+Q9H4B7+P0DPH7+P68366+Q13509+Q71U36+P04350+Q3ZCM7+P07437+P68363+Q9BQE3+Q6PEY2+Q13885+Q9BVA1+Q9BUF5); assay: Inhibition of microtubule assembly in human HepG2 cells assessed as disrupted microtubule network at 50 uM measured after 24 hrs incubation by anti-alpha-tubulin antibody (green) and Hoechst 33342 (blue) stained nuclei were obtained under microscopy; format: cell-based
[21] = system: MCF7; assay: Induction of cell cycle arrest in human MCF7 cells assessed as accumulation of cells at G2/M phase at 25 nM measured after 24 hrs by flow cytometry (reference value: 22.84%); format: functional
[22] = system: MCF7; assay: Induction of cell cycle arrest in human MCF7 cells assessed as accumulation of cells at G2/M phase at 4 nM measured after 24 hrs by flow cytometry (reference value: 22.84%); format: functional
[23] = system: MCF7; assay: Induction of apoptosis in human MCF7 cells assessed as necrotic cells at 6.25 nM measured after 48 hrs by AnnexinV/PI double staining assays (reference value: 0.89%); format: functional
[24] = system: MCF7; assay: Induction of cell cycle arrest in human MCF7 cells assessed as accumulation of cells at G0/G1 phase at 25 nM measured after 24 hrs by flow cytometry (reference value: 61.73%); format: functional
[25] = molecular target: T1, Tubulin (Homo sapiens); assay: In vitro inhibition of microtubule (unknown origin) assembly at 10 uM; format: protein-complex assay
[26] = system: MIA PaCa-2; assay: Antiproliferation activity against human MIA PaCa-2 cells measured after 72 hrs incubation by MTT assay; format: functional, cell-based; details: MIA PaCa-2, 72 h
[27] = system: MCF7; assay: Induction of cell cycle arrest in human MCF7 cells assessed as accumulation of cells at G0/G1 phase at 100 nM measured after 24 hrs by flow cytometry (reference value: 61.73%); format: functional
[28] = system: MCF7; assay: Induction of cell cycle arrest in human MCF7 cells assessed as increase in cyclin B1 protein expression at […] by Western blot analysis; format: functional, cell-based; details: dose lower 6.25 µM
[29] = system: MCF7; assay: Induction of apoptosis in human MCF7 cells assessed as necrotic cells at 25 nM measured after 48 hrs by AnnexinV/PI double staining assays (reference value: 0.89%); format: functional
[30] = system: MCF7; assay: Induction of apoptosis in human MCF7 cells assessed as late apoptotic cells at 50 nM measured after 48 hrs by AnnexinV/PI double staining assays (reference value: 2.60%); format: functional
[31] = system: NCI-H460; assay: Antiproliferation activity against human NCI-H460 cells measured after 72 hrs incubation by MTT assay; format: functional, cell-based; details: NCI-H460, 72 h
[32] = system: MCF7; assay: Induction of apoptosis in human MCF7 cells assessed as early apoptotic cells at 25 nM measured after 48 hrs by AnnexinV/PI double staining assays (reference value: 5.32%); format: functional
[33] = system: MCF7; assay: Induction of cell cycle arrest in human MCF7 cells assessed as accumulation of cells at G0/G1 phase at 4 nM measured after 24 hrs by flow cytometry (reference value: 61.73%); format: functional
[34] = molecular target: T1, Tubulin (Homo sapiens); assay: Inhibition of microtubule assembly in human MCF7 cells assessed as disrupted microtubule network at 50 uM measured after 24 hrs incubation by anti-alpha-tubulin antibody (green) and Hoechst 33342 (blue) stained nuclei were obtained under microscopy; format: cell-based
[35] = system: MCF7; assay: Induction of cell cycle arrest in human MCF7 cells assessed as accumulation of cells at G0/G1 phase at 500 nM measured after 24 hrs by flow cytometry (reference value: 61.73%); format: functional
[36] = system: MCF7; assay: Induction of apoptosis in human MCF7 cells assessed as late apoptotic cells at 6.25 nM measured after 48 hrs by AnnexinV/PI double staining assays (reference value: 2.60%); format: functional
[37] = system: NCI/ADR-RES; assay: Antiproliferation activity against human MCF7/ADR cells measured after 72 hrs incubation by MTT assay; format: functional, cell-based
[38] = system: MCF7; assay: Induction of apoptosis in human MCF7 cells assessed as karyorrhexis at 5 nM measured after 24 hrs by fluorescent microscopy; format: functional
[39] = system: MCF7; assay: Induction of apoptosis in human MCF7 cells assessed as early apoptotic cells at 12.5 nM measured after 48 hrs by AnnexinV/PI double staining assays (reference value: 5.32%); format: functional
[40] = system: HMEC-1; assay: Anti-migration activity in human HMEC-1 cells assessed as inhibition of cell migration at 5 nM measured after 48 hrs by Scratching assay; format: functional, cell-based
[41] = system: MCF7; assay: Induction of apoptosis in human MCF7 cells assessed as viable cells at 6.25 nM measured after 48 hrs by AnnexinV/PI double staining assays (reference value: 91.20%); format: functional; details: read-out: Activity
[42] = system: MCF7; assay: Induction of apoptosis in human MCF7 cells assessed as early apoptotic cells at 50 nM measured after 48 hrs by AnnexinV/PI double staining assays (reference value: 5.32%); format: functional
[43] = system: MCF7; assay: In vivo antitumor activity against human MCF7 cells xenografted in BALB/c mouse assessed as increase in cleaved caspase-3 treated at 10 mg/kg, iv every other day for 26 days; format: functional, organism-based; details: time 26.0 day
[44] = Toxicity in BALB/c mouse xenografted with human MCF7 cells assessed as lesions in kidney at 10 mg/kg, iv every other day for 26 days by H and E staining based assay; format: organism-based; details: in vivo, 624 h, time 26 day
[45] = Toxicity in BALB/c mouse xenografted with human MCF7 cells assessed as lesions in lung at 10 mg/kg, iv every other day for 26 days by H and E staining based assay; format: organism-based; details: in vivo, 624 h, time 26 day
[46] = Toxicity in BALB/c mouse xenografted with human MCF7 cells assessed as lesions in heart at 10 mg/kg, iv every other day for 26 days by H and E staining based assay; format: organism-based; details: in vivo, 624 h, time 26 day
[47] = Toxicity in BALB/c mouse xenografted with human MCF7 cells assessed as lesions in liver at 10 mg/kg, iv every other day for 26 days by H and E staining based assay; format: organism-based; details: in vivo, 624 h, time 26 day
[48] = system: MCF7; assay: In vivo antitumor activity against human MCF7 cells xenografted in BALB/c mouse assessed as decrease in tumor volume treated at 5 mg/kg, iv every other day for 26 days relative to control; format: functional; details: MCF7, 624 h, time 26 day
[49] = system: MCF7; assay: In vivo antitumor activity against human MCF7 cells xenografted in BALB/c mouse assessed as inhibition of Ki-67 expression treated at 10 mg/kg, iv every other day for 26 days; format: functional, organism-based; details: time 26.0 day
[50] = system: MCF7; assay: In vivo antitumor activity against human MCF7 cells xenografted in BALB/c mouse assessed as inhibition of tumor growth treated iv every other day for 26 days; format: functional, organism-based; details: time 26.0 day
[51] = system: MCF7; assay: In vivo antitumor activity against human MCF7 cells xenografted in BALB/c mouse assessed as decrease in tumor volume treated at 10 mg/kg, iv every other day for 26 days relative to control; format: functional; details: MCF7, 624 h, time 26 day
[52] = Toxicity in BALB/c mouse xenografted with human MCF7 cells assessed as lesions in spleen at 10 mg/kg, iv every other day for 26 days by H and E staining based assay; format: organism-based; details: in vivo, 624 h, time 26 day

COc1cc(NS(=O)(=O)c2ccc3c(c2)c2ccc(O)cc2n3C)c(OC)cc1Cl
Activity [1]: Active
Activity [2]: 13.75%
IC50 [3]: 53.7 nM
Activity [4]: 34.89%
viability at 0.05 µM [5]: 46.3%
Activity [6]: 50.6%
IC50 [7]: 6.42 nM
Activity [8]: 46.27%
Activity [9]: 0.06%
viability at 0.0125 µM [10]: 49.2%
Activity [11]: Dose-Dependent Effect
viability at 0.025 µM [12]: 36.8%
Activity [13]: 7.54%
IC50 [14]: 9.37 nM
IC50 [15]: 5.19 nM
Activity [16]: 0.07%
Activity [17]: 17.8%
Activity [18]: Dose-Dependent Effect
IC50 [19]: 24.3 nM
inhibition [20]: Active
Activity [21]: 17.8%
Activity [22]: 17.8%
Activity [23]: 0.05%
Activity [24]: 6.65%
inhibition [25]: Active
IC50 [26]: 0.81 nM
Activity [27]: 3.93%
Activity [28]: Dose-Dependent Effect
Activity [29]: 0.06%
Activity [30]: 10.8%
IC50 [31]: 12.4 nM
Activity [32]: 49.44%
Activity [33]: 37.05%
inhibition [34]: Active
Activity [35]: 3.82%
Activity [36]: 8.89%
IC50 [37]: 7.56 nM
Activity [38]: 42.87%
Activity [39]: 43.24%
inhibition [40]: Active
viability at 0.00625 µM [41]: 56.2%
Activity [42]: 42.87%

COc1cc(NS(=O)(=O)c2ccc3c(c2)c2ccc(OP(=O)([O-])[O-])cc2n3C)c(OC)cc1Cl.[Na+].[Na+]
IC50 [3]: 55.3 nM
Activity [43]: Active
Activity [44]: Non-Toxic
Activity [45]: Non-Toxic
Activity [46]: Non-Toxic
Activity [47]: Non-Toxic
inhibition in vivo at 5 mg/kg [48]: 56%
Activity [49]: Active
IC50 [14]: 36.1 nM
IC50 [15]: 5.72 nM
TGI [50]: Dose-Dependent Effect
IC50 [26]: 14.4 nM
inhibition in vivo at 10 mg/kg [51]: 73%
IC50 [31]: 18.5 nM
Activity [52]: Non-Toxic
